# Data: patent publication US8129412B2, “Hydantoin derivatives useful as metalloproteinase inhibitors” (AstraZeneca AB, priority 2004, dated 2012)
# Target: T1, Recombinant human proMMP13 (collagenase 3) (Homo sapiens, UniProt P45452)
# T1 construct: made in house
# Experiment: Collagenase 3 (MMP13) enzyme inhibition assay with fluorogenic peptide substrate
# Format: biochemical
# Conditions: APMA-activated MMP13, 4-5 hours at 35° C., pH 7.5, fluorescence λex 328 nm / λem 393 nm
# Experimental: Collagenase 3 (MMP13) inhibitory activity may be assessed, for example, using the procedure set out below:—
# Activity is determined by measuring the fluorescence at λex 328 nm and λem 393 nm.
row,IC50 [nM],Structure (SMILES)
1,8.4,"CC[C@]1(CS(=O)(=O)N2CCC(Oc3ccc(OCC(F)(F)F)cc3)CC2)NC(=O)NC1=O [Example 2, (5S)-5-ethyl-5-[({4-[4-(2,2,2-trifluoroethoxy)phenoxy]piperidin-1-yl}sulfonyl)methyl]imidazolidine-2,4-dione]"
2,4.9,"CCC1(CS(=O)(=O)N2CCC(Oc3ccc(OC(F)(F)C(F)F)cc3)CC2)NC(=O)NC1=O (stereo not drawn) [Example 4, 5S-ethyl-5-[({4-[4-(1,1,2,2-tetrafluoroethoxy)phenoxy]piperidin-yl}sulfonyl)methyl]imidazolidine-2,4-dione]"
3,13,"CC[C@]1(CS(=O)(=O)N2CCC(Oc3ccc(OC(F)(F)C(F)(F)F)cc3)CC2)NC(=O)NC1=O [Example 6, (5S)-5-ethyl-5-[({4-[4-(pentafluoroethoxy)phenoxy]piperidin-1-yl}sulfonyl)methyl]imidazolidine-2,4-dione]"
4,5.5,CCC1(CS(=O)(=O)N2CCC(Oc3ccc(OCCC(F)(F)F)cc3)CC2)NC(=O)NC1=O (stereo not drawn) [Example 8]
5,0.7,"CC[C@]1(CS(=O)(=O)N2CCC(Oc3ccc(OCC(F)(F)C(F)F)cc3)CC2)NC(=O)NC1=O [Example 10, (5S)-5-ethyl-5-[({4-[4-(2,2,3,3-tetrafluoropropoxy)phenoxy]-piperidin-1-yl}sulphonyl)methyl]imidazolidine-2,4-dione]"
6,1.9,"CC[C@]1(CS(=O)(=O)N2CCC(Oc3ccc(OCC(F)(F)C(F)(F)F)cc3)CC2)NC(=O)NC1=O [Example 12, (5S)-5-ethyl-5-[({4-[4-(2,2,3,3,3-pentafluoropropoxy)phenoxy]-piperidin-1-yl}sulphonyl)methyl]imidazolidine-2,4-dione]"
